“And” between values parts separate entries of the source, which are not always exact repeats. Identical values can stand only once. Like-named read-outs stand apart in the source and are kept apart here.
How the values were obtained:
human CB2 receptor = target: T1, human CB2 receptor (Homo sapiens, UniProt P34972); experiment: CB2 receptor binding, [3H]CP55,940 displacement in membranes of transfected cells; settings: mean±SEM, read-out: CB2 Ki
T1 construct: expressed in transfected cells; b94 says HEK for CB2
Experimental: cLogP calculations. Absolute solubility determinations were not performed. Rather, cLogP calculations were performed using the CS ChemDraw Ultra software (Cambridge Soft Corporation, Cambridge, Mass.). Receptor Binding. HEK-293 cells stably expressing the human CB1 receptor were cultured in DMEM with 10% FBS and Chinese Hamster Ovary (CHO) cells stably expressing the human CB2 receptor were cultured in DMEM with 10% FCS. Cells were harvested by replacement of the media with cold phosphate-buffered saline containing 1 mM EDTA followed by centrifugation at 1000×g for 5 min at 4° C. The pellet was resuspended in 50 mM Tris-HCl containing 320 mM sucrose, 2 mM EDTA and 5 mM MgCl2 (pH 7.4) (centrifugation buffer), then centrifuged at 1000×g for 10 min at 4° C., and the resulting supernatant was saved. This process was repeated twice. The supernatant fractions were combined and centrifuged at 40,000×g for 30 min at 4° C. The resulting P2 pellet was resuspended in assay buffer (50 mM Tris-HCl (pH 7.4), 3 mM MgCl2, 0.2 mM EGTA, and 100 mM NaCl) and protein was determined by the method of Bradford ENRfu(Bradford 1976). Membranes were stored at −80° C. until use. […] The assay was incubated at 30° C. for 1 hr and terminated by addition of ice cold 50 mM Tris-HCl plus BSA (1 mg/ml) (pH 7.4) followed by filtration under vacuum through Whatman GF/B glass fiber filters with 3 washes with cold Tris buffer. Bound radioactivity was determined by liquid scintillation spectrophotometry at 50% efficiency after extraction by shaking samples for 30-60 min with Budget-Solve scintillation fluid. Data are reported as the mean±SEM of three experiments, each performed in triplicate. Ki values were calculated from displacement data using EBDA (Equilibrium Binding Data Analysis; BIOSOFT, Milltown, N.J.). [^35S]GTPγS Binding Assays. Concentration-effect curves were generated by incubating membranes (10 μg prepared from CB1 expressing cells as described above) in assay buffer containing BSA (1 mg/ml) with various concentrations of test compounds in the presence of 20 μM GDP and 0.1 nM [^35S]GTPγS in a 1 ml total volume. […] Basal binding was assessed in the absence of agonist, and nonspecific binding was measured in the presence of 10 μM GTPγS. The reaction was incubated for 90 min at 30° C. and terminated by filtration under vacuum through Whatman GF/B glass fiber filters with 3 washes with cold (4° C.) Tris buffer (50 mM Tris-HCl, pH 7.4). Bound radioactivity was determined by liquid scintillation spectrophotometry at 95% efficiency after extraction overnight in ScintiSafe Econo 1 scintillation fluid. Data are reported as mean±SEM of three experiments, each performed in triplicate. Nonlinear regression analysis was conducted by iterative fitting using JMP (SAS for Macintosh). Net-stimulated [^35S]GTPγS binding is defined as [^35S]GTPγS binding in the presence of drug minus basal and percent stimulation is expressed as (net stimulated [^35S]GTPγS binding/basal)×100%. Behavioral Evaluations. All animals were allowed to acclimate to the observation room overnight. Behavioral effects were assessed in the tetrad model in order to measure potency in producing antinociception, catalepsy, hypothermia, and hypomobility. The baselines for tail-flick latency (2-4 seconds) and rectal temperature were determined prior to i.v. injections. Baseline rectal temperatures were measured using a telethermometer and a thermometer probe inserted to 25 mm (Yellow Springs Instrument Co., Yellow Springs, Ohio). The mice were then given either an i.v. i.c.v. injection of the analog. The mice were placed in individual photocell activity chambers 5 min later. Spontaneous activity was monitored for 10 min in a Digiscan Animal Activity Monitor (Omnitech Electronice, Inc., Columbus, Ohio) as measured by the number of interruptions of 16 photocell beams per chamber. The total number of beam interruptions during the 10-min period was determined and presented as total counts.

mice = experiment: Spontaneous activity (S.A.), mouse tetrad; assay type: in vivo; settings: for ED50: Mus musculus
[1] = iv, vehicle E:E:S (1:1:18), read-out: S.A. ED50 (reducing spontaneous activity)
[2] = iv, figure legends, i.v., vehicle 1:1:18 ethanol:emulphor:saline, read-out: ED50 after i.v. administration, spontaneous activity
[3] = iv, vehicle saline, read-out: S.A. ED50 (reducing spontaneous activity)

T1 sequence (P34972 whole entry): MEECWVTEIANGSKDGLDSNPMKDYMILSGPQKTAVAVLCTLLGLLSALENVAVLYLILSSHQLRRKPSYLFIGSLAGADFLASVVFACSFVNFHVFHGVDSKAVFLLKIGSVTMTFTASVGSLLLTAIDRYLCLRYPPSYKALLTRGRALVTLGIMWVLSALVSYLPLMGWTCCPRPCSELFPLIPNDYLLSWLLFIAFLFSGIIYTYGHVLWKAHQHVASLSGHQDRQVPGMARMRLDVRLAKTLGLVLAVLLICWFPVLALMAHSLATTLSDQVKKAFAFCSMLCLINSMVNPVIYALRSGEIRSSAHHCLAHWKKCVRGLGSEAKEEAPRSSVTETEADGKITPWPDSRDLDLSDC

Molecule	Ki (human CB2 receptor; Table 1B) [nM]	ED50 (mice; [1]) [µmol/kg]	Ki (human CB2 receptor; Tables 2b, 3b, 4a)	further results
CC1=CC[C@@H]2[C@@H](C1)c1c(O)cc(C(C)(C)CCCCC(=O)NN3CCCC3)cc1OC2(C)C [O-2543, N-(Pyrrolidin-yl)-carboxamido]	10.8 ± 0.08	0.71	–	–
CC1=CC[C@@H]2[C@@H](C1)c1c(O)cc(C(C)(C)CCCCC(=O)N3CCCCCC3)cc1OC2(C)C [O-2421, Homopiperidino-carboxamido]	3.45 ± 0.58	0.15	–	–
CC1=CC[C@@H]2[C@@H](C1)c1c(O)cc(C(C)(C)CCCCn3cncn3)cc1OC2(C)C [O-2716, 1,2,4-Triazol-1-yl]	–	0.03	0.92 ± 0.07 nM	ED50 (mice; [2]): 0.03 µmol/kg
CC1=CC[C@@H]2[C@@H](C1)c1c(O)cc(C(C)(C)CCCCC(N)=O)cc1OC2(C)C [O-2352, Carboxamido]	0.84 ± 0.05	0.16	–	–
CC1=CC[C@@H]2[C@@H](C1)c1c(O)cc(C(C)(C)CCCCC(=O)N3CCCCC3)cc1OC2(C)C [O-2373, Piperidino-carboxamido]	0.96 ± 0.01	0.02	–	–
CC1=CC[C@@H]2[C@@H](C1)c1c(O)cc(C(C)(C)CCCCn3ccnc3)cc1OC2(C)C [O-2545, Imidazol-1-yl]	–	0.01	0.12 nM and 0.32 nM	ED50 (mice; iv, figure legends, i.v., saline, read-out: ED50 after i.v. administration, spontaneous activity): 0.09 µmol/kg; ED50 (mice; [3]): 0.09 µmol/kg
CC1=CC[C@@H]2[C@@H](C1)c1c(O)cc(C(C)(C)CCCCn3cccn3)cc1OC2(C)C [O-2715, Pyrazol-1-yl]	–	0.004	1.52 ± 0.31 nM	ED50 (mice; [2]): 0.004 µmol/kg
CC1=CC[C@@H]2[C@@H](C1)c1c(O)cc(C(C)(C)CCCCn3ccnc3C)cc1OC2(C)C [O-2651, 2-Methyl-imidazol-1-y1]	–	–	1.22 ± 0.28 nM	ED50 (mice; [3]): 1.46 µmol/kg
CC1=CC[C@@H]2[C@@H](C1)c1c(O)cc(C(C)(C)CCCCc3ncc[nH]3)cc1OC2(C)C [O-2737, 1H-Imidazol-2-yl]	–	> 24.5	14.8 ± 1.14 nM	ED50 (mice; [3]): > 2.2 µmol/kg
CNC(=O)CCCCC(C)(C)c1cc(O)c2c(c1)OC(C)(C)[C@@H]1CC=C(C)C[C@@H]21 [O-2490, N-(Methyl)carboxamido]	3.16 ± 0.75	0.49	–	–
CC1=CC[C@@H]2C(C1)c1c(OC(=O)CCCN(C(C)C)C(C)C)cc(C(C)(C)CCCCC(=O)N3CCOCC3)cc1OC2(C)C (stereo partly drawn) [O-2694, Diisopropylaminobutyrate of Δ^8-THC-3-(1,1-dimethyl-6-morpholin-4-yl-6-oxo-hexyl)]	–	–	2.77 ± 0.44 nM	ED50 (mice; Table 4b, vehicle not indicated, read-out: S.A. ED50 (reducing spontaneous activity)): 0.045 µmol/kg
CC1=CC[C@@H]2[C@@H](C1)c1c(O)cc(C(C)(C)CCCCC(=O)NN3CCOCC3)cc1OC2(C)C [O-2544, N-(Morpholin-1-yl)-carboxamido]	11.4 ± 0.91	0.17	–	–
CC1=CC[C@@H]2[C@@H](C1)c1c(O)cc(C(C)(C)CCCCC(=O)N3CCN(C)CC3)cc1OC2(C)C [O-2381, Methylepiperazino-carboxamido]	389 ± 46	21.4	–	–
CC1=CC[C@@H]2[C@@H](C1)c1c(O)cc(C(C)(C)CCCCC(=O)N3CCCC3)cc1OC2(C)C [O-2399, Pyrrolidino-carboxamido]	2.86 ± 0.68	0.03	–	–
CC1=CC[C@@H]2[C@@H](C1)c1c(O)cc(C(C)(C)CCCCC(=O)NN3CCCCCC3)cc1OC2(C)C [O-2489, N-(Homo-piperidin-1-yl)-carboxamido]	35.3 ± 4.48	2.07	–	–
1-(2-methyl-4-N-piperidinobutyryloxy) [O-2374]	–	–	1.1 ± 0.1 nM	S.A. ED50 (reducing spontaneous activity) (mice; i.v., vehicle saline): 0.18 µmol/kg
CC1=CC[C@@H]2[C@@H](C1)c1c(O)cc(C(C)(C)CCCCC(=O)N3CCOCC3)cc1OC2(C)C [O-2372, Morpholino-carboxamido]	0.57 ± 0.04	0.01	–	–
